Test system: Crude diglycosidase
Experiment: Examination of substrate concentration in the conversion into isoflavone aglycons by diglycosidase using soybean materials
Format: biochemical, Penicillium multicolor IAM7153
In short: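 Reaction at 55° C, shaken, pH 4.0 (20 mM acetate), using crude diglycosidase from a 1.88 AU/mL enzyme solution on soy flour, soymilk, defatted soybean or soy protein concentrate at 2, 5, 10, 20 or 30% (w/v). Isoflavone aglycons quantified by HPLC of ethanol extracts at 0, 1, 3, 6 h.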

For `O=c1c(-c2ccc(O)cc2)coc2cc(O)cc(O)c12` [genistein], which “Decomposition efficiency of genistin family in defatted soybean” value (“Decomposition efficiency” below) (substrate concentration 2%, heat treatment of enzyme no, reaction time 0 h) is on record?
The value was 15.1.

What about the “Decomposition efficiency” value (substrate concentration 2%, heat treatment of enzyme no, reaction time 1 h) of the same compound?
Its value is 68.6.

What about the “Decomposition efficiency” value (substrate concentration 2%, heat treatment of enzyme no, reaction time 3 h) of the same compound?
The value was 83.0.

What about the “Decomposition efficiency” value (substrate concentration 2%, heat treatment of enzyme no, reaction time 6 h) of the same compound?
The value was 88.6.

What about the “Decomposition efficiency” value (substrate concentration 2%, heat treatment of enzyme yes, reaction time 6 h) of the same compound?
Its value is 18.0.

And the “Decomposition efficiency” value (substrate concentration 5%, heat treatment of enzyme no, reaction time 0 h)?
The value was 14.2.

What about the “Decomposition efficiency” value (substrate concentration 5%, heat treatment of enzyme no, reaction time 1 h) of the same compound?
Its value is 61.2.

What about the “Decomposition efficiency” value (substrate concentration 5%, heat treatment of enzyme no, reaction time 3 h) of the same compound?
The value was 69.9.

And the “Decomposition efficiency” value (substrate concentration 5%, heat treatment of enzyme no, reaction time 6 h)?
Its value is 80.7.

And the “Decomposition efficiency” value (substrate concentration 5%, heat treatment of enzyme yes, reaction time 6 h)?
Its value is 15.4.

What about the “Decomposition efficiency” value (substrate concentration 10%, heat treatment of enzyme no, reaction time 0 h) of the same compound?
Its value is 14.1.

And the “Decomposition efficiency” value (substrate concentration 10%, heat treatment of enzyme no, reaction time 1 h)?
Its value is 57.2.

And the “Decomposition efficiency” value (substrate concentration 10%, heat treatment of enzyme no, reaction time 3 h)?
The value was 64.0.

What about the “Decomposition efficiency” value (substrate concentration 10%, heat treatment of enzyme no, reaction time 6 h) of the same compound?
Its value is 70.3.

What about the “Decomposition efficiency” value (substrate concentration 10%, heat treatment of enzyme yes, reaction time 6 h) of the same compound?
Its value is 14.5.

Source: US7118895B2, “Process for producing aglycon by using diglycosidase and flavor-improved food containing the aglycon and converting agent to be used in the process” (Amano Enzyme Inc., priority 2000, dated 2006)
